Experimental data taken from patent US10358446B2, “Bruton's tyrosine kinase inhibitors” (Zibo Biopolar Changsheng Pharmaceutical Co. Ltd., priority 2015, dated 2019).
pIC50: −log10 of the molar value.

Biological target: BTK (Homo sapiens (Human), UniProt Q06187)
Assay: Btk kinase assay (HTRF)
Format: biochemical
Settings: [ATP]=80 μM, BTK=3.4 nM; read-out: BTK Inhibition
Procedure, shortened: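 HTRF kinase read-out (665/615 nm ratio, excitation 330 nm) after EDTA quench and 1 h detection incubation. Reaction: 3.4 nM BTK, ATP 80 μM, peptide substrate 1 μM, compound, HEPES pH 7.0 buffer, 1 h; IC50 derived using uninhibited and enzyme-free controls.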

Chain of BTK (Q06187 whole entry, species assumed): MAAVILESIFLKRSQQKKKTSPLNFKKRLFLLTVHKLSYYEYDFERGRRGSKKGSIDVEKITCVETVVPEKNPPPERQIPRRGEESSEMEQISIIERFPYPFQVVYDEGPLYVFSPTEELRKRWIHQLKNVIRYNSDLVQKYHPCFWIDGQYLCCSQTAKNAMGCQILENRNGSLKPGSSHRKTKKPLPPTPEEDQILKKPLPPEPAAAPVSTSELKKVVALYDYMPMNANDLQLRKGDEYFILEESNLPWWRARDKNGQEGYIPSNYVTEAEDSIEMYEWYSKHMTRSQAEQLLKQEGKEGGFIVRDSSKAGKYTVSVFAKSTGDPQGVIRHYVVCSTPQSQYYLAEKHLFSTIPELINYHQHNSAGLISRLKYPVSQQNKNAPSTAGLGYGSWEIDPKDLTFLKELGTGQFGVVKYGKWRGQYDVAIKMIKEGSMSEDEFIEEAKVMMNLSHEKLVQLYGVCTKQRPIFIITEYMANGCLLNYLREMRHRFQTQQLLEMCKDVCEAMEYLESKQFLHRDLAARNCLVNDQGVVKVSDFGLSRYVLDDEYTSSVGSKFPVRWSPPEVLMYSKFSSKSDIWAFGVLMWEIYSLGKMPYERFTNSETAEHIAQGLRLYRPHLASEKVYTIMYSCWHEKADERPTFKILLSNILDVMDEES

C=CC(=O)Nc1cccc(-n2c(=O)n(-c3ccc(-c4ccc(C)cc4)cc3)c3cnccc32)c1 [Example 276, N-(3-(3-(4′-methyl-[1,1′-biphenyl]-4-yl)-2-oxo-2,3-dihydro-1H-imidazo[4,5-c]pyridin-1-yl)phenyl)acrylamide]
pIC50: 5.00 to 6.00

C=CC(=O)N1CCC[C@@H](n2c(=O)n(-c3ccc(Oc4cccc(C)c4C)cc3)c3cnccc32)C1 [Example 58, (R)-1-(1-acryloylpiperidin-3-yl)-3-(4-(2,3-dimethylphenoxy)phenyl)-1H-imidazo[4,5-c]pyridin-2(3H)-one]
pIC50: 7.00 to 8.00

C=C(C)C(=O)Nc1cccc(-n2c(=O)n(-c3ccc(Oc4ccccc4)cc3)c3cnccc32)c1 [Example 110, N-(3-(2-oxo-3-(4-phenoxyphenyl)-2,3-dihydro-1H-imidazo[4,5-c]pyridin-1-yl)phenyl)methacrylamide]
pIC50: 6.00 to 7.00

C=CC(=O)Nc1cccc(-n2c(=O)n(-c3ccc(-c4cccc(C)c4)cc3)c3cnccc32)c1 [Example 270, N-(3-(3-(3′-methyl-[1,1′-biphenyl]-4-yl)-2-oxo-2,3-dihydro-1H-imidazo[4,5-c]pyridin-1-yl)phenyl)acrylamide]
pIC50: ≤ 5.00

C=CC(=O)Nc1cccc(-n2c(=O)n(-c3ccc(C(=O)NCc4ccc(F)cc4)cc3)c3cnccc32)c1 [Example 249, 4-(1-(3-acrylamidophenyl)-2-oxo-1H-imidazo[4,5-c]pyridin-3(2H)-yl)-N-(4-fluorobenzyl)benzamide]
pIC50: 7.00 to 8.00

C=CC(=O)Nc1cccc(-n2c(=O)n(-c3ccc(Sc4ccccc4)cc3)c3cnccc32)c1 [Example 157, N-(3-(2-oxo-3-(4-(phenylthio)phenyl)-2,3-dihydro-1H-imidazo[4,5-c]pyridin-1-yl)phenyl)acrylamide]
pIC50: ≥ 8.00

C=CC(=O)N1CC[C@@H](n2c(=O)n(-c3ccc(Oc4cccc(Cl)c4)c(F)c3)c3cnccc32)C1 [Example 149, (R)-1-(1-acryloylpyrrolidin-3-yl)-3-(4-(3-chlorophenoxy)-3-fluorophenyl)-1H-imidazo[4,5-c]pyridin-2(3H)-one]
pIC50: 7.00 to 8.00

C=CC(=O)Nc1cccc(-n2c(=O)n(-c3ccc(OCc4cccc(F)c4)cc3)c3cnccc32)c1 [Example 222, N-(3-(3-(4-((3-fluorobenzyl)oxy)phenyl)-2-oxo-2,3-dihydro-1H-imidazo[4,5-c]pyridin-1-yl)phenyl)acrylamide]
pIC50: 7.00 to 8.00

CC(=O)N1CC[C@@H](n2c(=O)n(-c3ccc(Oc4ccccc4)cc3)c3cnccc32)C1 [Example 32, (R)-1-(1-acetylpyrrolidin-3-yl)-3-(4-phenoxyphenyl)-1H-imidazo[4,5-c]pyridin-2(3H)-one]
pIC50: ≤ 5.00

C=CC(=O)Nc1cccc(-n2c(=O)n(-c3ccc(Oc4ccc(OC)c(OC)c4)cc3)c3cnccc32)c1 [Example 131, N-(3-(3-(4-(3,4-dimethoxyphenoxy)phenyl)-2-oxo-2,3-dihydro-1H-imidazo[4,5-c]pyridin-1-yl)phenyl)acrylamide]
pIC50: 7.00 to 8.00

C=CC(=O)N1CCC[C@@H](n2c(=O)n(-c3ccc(Oc4cccc(Cl)c4)cc3)c3cnccc32)C1 [Example 106, (R)-1-(1-acryloylpiperidin-3-yl)-3-(4-(3-chlorophenoxy)phenyl)-1H-imidazo[4,5-c]pyridin-2(3H)-one]
pIC50: 7.00 to 8.00

C=CC(=O)N1CC[C@@H](n2c(=O)n(-c3ccc(Oc4ccccc4)cc3)c3cncc(C)c32)C1 [Example 176, (R)-1-(1-acryloylpyrrolidin-3-yl)-7-methyl-3-(4-phenoxyphenyl)-1H-imidazo[4,5-c]pyridin-2(3H)-one]
pIC50: ≥ 8.00

C=CC(=O)Nc1cccc(-n2c(=O)n(-c3ccc(OCc4ccccc4C)cc3)c3cnccc32)c1 [Example 225, N-(3-(3-(4-((2-methylbenzyl)oxy)phenyl)-2-oxo-2,3-dihydro-1H-imidazo[4,5-c]pyridin-1-yl)phenyl)acrylamide]
pIC50: 6.00 to 7.00

C=CC(=O)N1CC[C@@H](n2c(=O)n(-c3cccc(Oc4ccccc4)c3)c3cnccc32)C1 [Example 155, (R)-1-(1-acryloylpyrrolidin-3-yl)-3-(3-phenoxyphenyl)-1H-imidazo[4,5-c]pyridin-2(3H)-one]
pIC50: 7.00 to 8.00

C=CC(=O)N1CC[C@@H](n2c(=O)n(-c3ccc(Oc4cccc(F)c4)c(F)c3)c3cnccc32)C1 [Example 77, (R)-1-(1-acryloylpyrrolidin-3-yl)-3-(3-fluoro-4-(3-fluorophenoxy)phenyl)-1H-imidazo[4,5-c]pyridin-2(3H)-one]
pIC50: 7.00 to 8.00

C=CC(=O)N1CC[C@@H](n2c(=O)n(-c3ccc(OCc4ccc(F)cc4F)c(Cl)c3)c3cnccc32)C1 [Example 202, (R)-1-(1-acryloylpyrrolidin-3-yl)-3-(3-chloro-4-((2,4-difluorobenzyl)oxy)phenyl)-1H-imidazo[4,5-c]pyridin-2(3H)-one]
pIC50: 6.00 to 7.00

C=CC(=O)N1CC[C@@H](n2c(=O)n(-c3ccc(Oc4cccc(C)c4)c(F)c3)c3cnccc32)C1 [Example 78, (R)-1-(1-acryloylpyrrolidin-3-yl)-3-(3-fluoro-4-(m-tolyloxy)phenyl)-1H-imidazo[4,5-c]pyridin-2(3H)-one]
pIC50: 7.00 to 8.00

C=CC(=O)N1CC[C@@H](n2c(=O)n(-c3ccc(Oc4ccc(OC)cc4)c(Cl)c3)c3cnccc32)C1 [Example 42, (R)-1-(1-acryloylpyrrolidin-3-yl)-3-(3-chloro-4-(4-methoxyphenoxy)phenyl)-1H-imidazo[4,5-c]pyridine-2(3H)-one]
pIC50: 7.00 to 8.00

C=CC(=O)Nc1cccc(-n2c(=O)n(-c3ccc(Oc4cccc(F)c4)c(C)c3)c3cnccc32)c1 [Example 146, N-(3-(3-(4-(3-fluorophenoxy)-3-methylphenyl)-2-oxo-2,3-dihydro-1H-imidazo[4,5-c]pyridin-1-yl)phenyl)acrylamide]
pIC50: 7.00 to 8.00

C=CC(=O)Nc1cccc(-n2c(=O)n(-c3cccc(Oc4cccc(Cl)c4F)c3)c3cnccc32)c1 [Example 96, N-(3-(3-(3-(3-chloro-2-fluorophenoxy)phenyl)-2-oxo-2,3-dihydro-1H-imidazo[4,5-c]pyridin-1-yl)phenyl)acrylamide]
pIC50: 7.00 to 8.00

C=CC(=O)Nc1cccc(-n2c(=O)n(-c3ccc(NC(=O)c4cccc(F)c4)cc3)c3cnccc32)c1 [Example 265, N-(4-(1-(3-acrylamidophenyl)-2-oxo-1H-imidazo[4,5-c]pyridin-3(2H)-yl)phenyl)-3-fluorobenzamide]
pIC50: 6.00 to 7.00

C=CC(=O)N1CC[C@@H](n2c(=O)n(-c3cccc(Oc4cccc(F)c4C)c3)c3cnccc32)C1 [Example 55, (R)-1-(1-acryloylpyrrolidin-3-yl)-3-(3-(3-fluoro-2-methylphenoxy)phenyl)-1H-imidazo[4,5-c]pyridin-2(3H)-one]
pIC50: 7.00 to 8.00

C=CC(=O)Nc1cccc(-n2c(=O)n(-c3ccc(NC(=O)c4ccccc4)cc3)c3cnccc32)c1 [Example 261, N-(4-(1-(3-acrylamidophenyl)-2-oxo-1H-imidazo[4,5-c]pyridin-3(2H)-yl)phenyl)benzamide]
pIC50: 6.00 to 7.00

C=CC(=O)Nc1cccc(-n2c(=O)n(-c3ccc(Oc4cccc(OC)c4)cc3)c3cnccc32)c1 [Example 158, N-(3-(3-(4-(3-methoxyphenoxy)phenyl)-2-oxo-2,3-dihydro-1H-imidazo[4,5-c]pyridin-1-yl)phenyl) acrylamide]
pIC50: 7.00 to 8.00

C=CC(=O)N1CC[C@@H](n2c(=O)n(-c3ccc(Oc4cccc(OC(C)C)c4)c(F)c3)c3cnccc32)C1 [Example 52, (R)-1-(1-acryloylpyrrolidin-3-yl)-3-(3-fluoro-4-(3-isopropoxyphenoxy)phenyl)-1H-imidazo[4,5-c]pyridin-2(3H)-one]
pIC50: 6.00 to 7.00

C=CC(=O)N1CC[C@@H](n2c(=O)n(-c3ccc(Oc4cccc(OC(C)C)c4)cc3)c3cnccc32)C1 [Example 25, (R)-1-(1-acryloylpyrrolidin-3-yl)-3-(4-(3-isopropoxyphenoxy)phenyl)-1H-imidazo[4,5-c]pyridin-2(3H)-one]
pIC50: ≥ 8.00

O=C(/C=C/c1ccccc1)N1CC[C@@H](n2c(=O)n(-c3ccc(Oc4ccccc4)cc3)c3cnccc32)C1 [Example 29, (R,E)-1-(1-cinnamoylpyrrolidin-3-yl)-3-(4-phenoxyphenyl)-1H-imidazo[4,5-c]pyridin-2(3H)-one]
pIC50: ≤ 5.00

C=CC(=O)Nc1cccc(-n2c(=O)n(-c3ccc(Oc4cccc(OC)c4)c(Cl)c3)c3cnccc32)c1 [Example 86, N-(3-(3-(3-chloro-4-(3-methoxyphenoxy)phenyl)-2-oxo-2,3-dihydro-1H-imidazo[4,5-c]pyridin-1-yl)phenyl)acrylamide]
pIC50: 6.00 to 7.00

C=CC(=O)Nc1cccc(-n2c(=O)n(-c3ccc(Oc4ccc(Cl)c(Cl)c4)cc3)c3cnccc32)c1 [Example 159, N-(3-(3-(4-(3,4-dichlorophenoxy)phenyl)-2-oxo-2,3-dihydro-1H-imidazo[4,5-c]pyridin-1-yl)phenyl)acrylamide]
pIC50: 7.00 to 8.00

C=CC(=O)Nc1cccc(-n2c(=O)n(-c3cccc(Oc4cccc(C)c4)c3)c3cnccc32)c1 [Example 152, N-(3-(2-oxo-3-(3-(m-tolyloxy)phenyl)-2,3-dihydro-1H-imidazo[4,5-c]pyridin-1-yl)phenyl)acrylamide]
pIC50: 7.00 to 8.00

C=CC(=O)N1CC[C@@H](n2c(=O)n(-c3cccc(Oc4ccc(C)cc4)c3)c3cnccc32)C1 [Example 16, (R)-1-(1-acryloylpyrrolidin-3-yl)-3-(3-(p-tolyloxy)phenyl)-1H-imidazo[4,5-c]pyridin-2(3H)-one]
pIC50: 7.00 to 8.00

C=CC(=O)N1CC[C@@H](n2c(=O)n(-c3ccc(Oc4ccccc4)cc3)c3c([N+](=O)[O-])cccc32)C1 [Example 189, (R)-1-(1-acryloylpyrrolidin-3-yl)-4-nitro-3-(4-phenoxyphenyl)-1H-benzo[d]imidazol-2(3H)-one]
pIC50: ≤ 5.00

C=CC(=O)N1CCCC1Cn1c(=O)n(-c2ccc(Oc3ccccc3)cc2)c2cnccc21 (stereo not drawn) [Example 21, 1-((1-acryloylpyrrolidin-2-yl)methyl)-3-(4-phenoxyphenyl)-1H-imidazo[4,5-c]pyridin-2(3H)-one]
pIC50: 7.00 to 8.00
